Reference: US20220330549A1, “USE OF N-BENZYLBENZAMIDE-BASED COMPOUND AS HERBICIDE” (Northwest A&F University, priority 2020, published 2022)

How the values were obtained:
Type in all cases: in vivo
[1] = tested on: Humulus scandens; assay: Herbicidal activity test for indoor pre-emergence soil treatment; conditions: 150 g a.i./ha, visual inspection 21 days after treatment
Procedure: (§1) The herbicidal activity test for indoor pre-emergence soil treatment was performed with some of the N-benzylbenzamide-based compounds of general formula I or II with reference to the method of NY/T 1155.3-2006. Neutral sandy loam soil having an organic content of ≤2% was added to fill ⅘ of the pot, and the soil was completely moistened by infiltrating irrigation from the bottom of the pot. The seeds of the test weed were evenly spread on the soil surface, and then covered by 0.5 cm to 2.0 cm of soil depending on the seed size. Representative compounds in the examples were used to prepare emulsifiable concentrates (10%), and spray treatments to the soil were performed 24 hours after the sowing with the test agents diluted with water, at a spraying dosage of 150 g(a.i.)/ha. Then, the results were investigated by visual inspection 21 days after the treatments. The herbicidal activity of the agent was evaluated on a scale of 1-9 levels according to the symptoms and severity of damage to the test weeds.
(§2) Level 2: equivalent to 0 to 2.5% of the weed in the blank control area;
(§3) Level 3: equivalent to 2.6 to 5% of the weed in the blank control area;
(§4) Level 4: equivalent to 5.1 to 10% of the weed in the blank control area;
(§5) Level 5: equivalent to 10.1 to 15% of the weed in the blank control area;
(§6) Level 6: equivalent to 15.1 to 25% of the weed in the blank control area;
(§7) Level 7: equivalent to 25.1 to 35% of the weed in the blank control area;
(§8) Level 8: equivalent to 35.1 to 67.5% of the weed in the blank control area; and
(§9) Level 9: equivalent to 67.6 to 100% of the weed in the blank control area.

[2] = tested on: Digitaria sanguinalis; assay: as above; design: key: 1-9 levels; higher = more weed remaining vs blank control; conditions: 150 g a.i./ha, visual inspection 21 days after treatment
Procedure: as §1, §2, §3, §4, §5, §6, §7, §8, §9

[3] = tested on: Amaranthus retroflexus; assay: as above; design: key: 1-9 levels; higher = more weed remaining vs blank control; conditions: 150 g a.i./ha, visual inspection 21 days after treatment
Procedure: as §1, §2, §3, §4, §5, §6, §7, §8, §9

[4] = tested on: green bristlegrass; assay: as above; design: key: level 1-9; higher = more weed remaining vs blank control; conditions: 150 g a.i./ha, visual inspection 21 days after treatment
Procedure: as §1, §2, §3, §4, §5, §6, §7, §8, §9

[5] = tested on: Piemarker; assay: as above; design: key: level 1-9; higher = more weed remaining vs blank control; conditions: 150 g a.i./ha, visual inspection 21 days after treatment
Procedure: as §1, §2, §3, §4, §5, §6, §7, §8, §9

[6] = tested on: Barnyard grass; assay: as above; design: key: level 1-9; higher = more weed remaining vs blank control; conditions: 150 g a.i./ha, visual inspection 21 days after treatment
Procedure: as §1, §2, §3, §4, §5, §6, §7, §8, §9

[7] = tested on: Humulus scandens; assay: Herbicidal activity test for indoor post-emergence spraying on stems and leaves; design: key: grade level by weed remaining vs blank control, e.g. 5 = 10.1-15%; conditions: 150 g a.i./ha, visual inspection 21 days after treatment
Procedure: (§10) The post-emergence herbicidal activity test was performed with some of the N-benzylbenzamide-based compounds of general formula I or II with reference to the method of NY/T 1155.4-2006. […] After the sowing, the weed was moved to a greenhouse for regular cultivation. […] Then, the results were investigated by visual inspection 21 days after the treatments. […] Level 5: equivalent to 10.1 to 15% of the weed in the blank control area; Level 6: equivalent to 15.1 to 25% of the weed in the blank control area; Level 7: equivalent to 25.1 to 35% of the weed in the blank control area; Level 8: equivalent to 35.1 to 67.5% of the weed in the blank control area; and […]

[8] = tested on: green bristlegrass; assay: as above; design: key: grade level by weed remaining vs blank control, e.g. 5 = 10.1-15%; conditions: 150 g a.i./ha, visual inspection 21 days after treatment
Procedure: as §10

[9] = tested on: Digitaria sanguinalis; assay: as above; design: key: grade level by weed remaining vs blank control, e.g. 5 = 10.1-15%; conditions: 150 g a.i./ha, visual inspection 21 days after treatment
Procedure: as §10

[10] = tested on: Amaranthus retroflexus; assay: as above; design: key: grade level by weed remaining vs blank control, e.g. 5 = 10.1-15%; conditions: 150 g a.i./ha, visual inspection 21 days after treatment
Procedure: as §10

[11] = tested on: Piemarker; assay: as above; design: key: grade level by weed remaining vs blank control, e.g. 5 = 10.1-15%; conditions: 150 g a.i./ha, visual inspection 21 days after treatment
Procedure: as §10

[12] = tested on: Barnyard grass; assay: as above; design: key: grade level by weed remaining vs blank control, e.g. 5 = 10.1-15%; conditions: 150 g a.i./ha, visual inspection 21 days after treatment
Procedure: as §10

[13] = tested on: Broadleaf weed; assay: Post-emergence herbicidal activity test in a paddy field; design: key: level scale; higher level = more weed left vs blank control; conditions: 150 g a.i./ha (penoxsulam control 250 g(a.i.)/h)
Procedure: (§11) The post-emergence herbicidal activity test was performed in a paddy field with some of the N-benzylbenzamide-based compounds of general formula I or II with reference to the method of GB/T 17980.40-2000. […] Spray treatments were performed in the stage where 4 leaves to 5 leaves were grown for the rice seedlings which was about 1 month after the sowing. Representative compounds in the examples were used to prepare emulsifiable concentrates (10%), and spray treatments were performed with the concentrates in water at a dosage of 150 g(a.i.)/ha, and repeated 4 times for each treatment, and the area was 50 m^2. 25 g/L of penoxsulam suspension was used as a control agent and applied at a dosage of 250 g(a.i.)/h. The results were investigated by a value estimating survey method 15 days and 30 days after the treatments. The relative weed population quantities were estimated by comparing each agent treated area with an adjacent blank control area, and the results of which were investigated with the following grading standard method using the overall coverage of the weed population as an indicator.
as §2, §3, §4, §5, §6, §7, §8, §9

[14] = tested on: Cyperaceae; assay: as above; design: key: level scale; higher level = more weed left vs blank control; conditions: 150 g a.i./ha (penoxsulam control 250 g(a.i.)/h)
Procedure: as §11, §2, §3, §4, §5, §6, §7, §8, §9

[15] = tested on: Gramineae; assay: as above; design: key: level scale; higher level = more weed left vs blank control; conditions: 150 g a.i./ha (penoxsulam control 250 g(a.i.)/h)
Procedure: as §11, §2, §3, §4, §5, §6, §7, §8, §9

[16] = tested on: nutgrass flatsedge; assay: Field test for weed control in a corn field; conditions: 150 g a.i./ha, after treatment
Procedure: (§12) The weed control efficacy field test was performed in a corn field with some of the N-benzylbenzamide-based compounds of general formula I or II with reference to the method of GB/T 17980.42-2000. […] Spray treatments were performed in the stage where 2 leaves to 5 leaves were grown for the corns after the sowing. Representative compounds in the examples were used to prepare emulsifiable concentrates (10%), and spray treatments were performed with the concentrates in water at a dosage of 150 g(a.i.)/ha, and repeated 4 times for each treatment, and the area was 20 m^2. Oil dispersion with 25% of mesotrione was used as a control agent and applied at a dosage of 150 g(a.i.)/h. […] The herbicidal activities of the agents were evaluated on a scale of 1-9 levels according to the symptoms and severity of damage to the test weeds.
as §2, §3, §4, §5, §6, §7, §8, §9

[17] = tested on: green bristlegrass; assay: Field test for weed control in a corn field; conditions: 150 g a.i./ha, after treatment
Procedure: as §12, §2, §3, §4, §5, §6, §7, §8, §9

[18] = tested on: Acalypha australis; assay: Field test for weed control in a corn field; conditions: 150 g a.i./ha, after treatment
Procedure: as §12, §2, §3, §4, §5, §6, §7, §8, §9

[19] = tested on: goosegrass; assay: Field test for weed control in a corn field; conditions: 150 g a.i./ha, after treatment
Procedure: as §12, §2, §3, §4, §5, §6, §7, §8, §9

[20] = tested on: Portulaca oleracea; assay: Field test for weed control in a corn field; conditions: 150 g a.i./ha, after treatment
Procedure: as §12, §2, §3, §4, §5, §6, §7, §8, §9

[21] = tested on: Chenopodium album; assay: Field test for weed control in a corn field; conditions: 150 g a.i./ha, after treatment
Procedure: as §12, §2, §3, §4, §5, §6, §7, §8, §9

[22] = tested on: Digitaria sanguinalis; assay: Field test for weed control in a corn field; conditions: 150 g a.i./ha, after treatment
Procedure: as §12, §2, §3, §4, §5, §6, §7, §8, §9

[23] = tested on: Solanum nigrum; assay: Field test for weed control in a corn field; conditions: 150 g a.i./ha, 30 days after treatment
Procedure: as §12, §2, §3, §4, §5, §6, §7, §8, §9

[24] = tested on: Amaranthus retroflexus; assay: Field test for weed control in a corn field; conditions: 150 g a.i./ha, 30 days after treatment
Procedure: as §12, §2, §3, §4, §5, §6, §7, §8, §9

[25] = tested on: Convolvulus arvensis; assay: Field test for weed control in a corn field; conditions: 150 g a.i./ha, after treatment
Procedure: as §12, §2, §3, §4, §5, §6, §7, §8, §9

[26] = tested on: Barnyard grass; assay: Field test for weed control in a corn field; conditions: 150 g a.i./ha, 30 days after treatment
Procedure: as §12, §2, §3, §4, §5, §6, §7, §8, §9

SMILES: COc1ncccc1C(=O)NCc1cc(F)cc(Cl)c1 [Compound A89]
- Herbicidal Activity Humulus scandens [1]: 2 (equivalent to 0 to 2.5% of the weed in the blank control area)
- Herbicidal Activity Digitaria sanguinalis [2]: 2 (equivalent to 0 to 2.5% of the weed in the blank control area)
- Herbicidal Activity Amaranthus retroflexus [3]: 1
- Herbicidal Activity Green bristlegrass [4]: 1
- Herbicidal Activity Piemarker [5]: 1
- Herbicidal Activity Barnyard grass [6]: 1
- Herbicidal Activity Humulus scandens [7]: 1
- Herbicidal Activity Green bristlegrass [8]: 1
- Herbicidal Activity Digitaria sanguinalis [9]: 1
- Herbicidal Activity Amaranthus retroflexus [10]: 1
- Herbicidal Activity Piemarker [11]: 1
- Herbicidal Activity Barnyard grass [12]: 1
- Herbicidal activity 15 days after treatment Broadleaf weed [13]: 1
- Herbicidal activity 30 days after treatment Broadleaf weed [13]: 1
- Herbicidal activity 15 days after treatment Cyperaceae [14]: 1
- Herbicidal activity 30 days after treatment Cyperaceae [14]: 1
- Herbicidal activity 15 days after treatment Gramineae [15]: 1
- Herbicidal activity 30 days after treatment Gramineae [15]: 1
- Post-emergence weed control effect, Nutgrass flatsedge [16]: 2 (equivalent to 0 to 2.5% of the weed in the blank control area)
- Post-emergence weed control effect, Green bristlegrass [17]: 1
- Post-emergence weed control effect, Acalypha australis [18]: 1
- Post-emergence weed control effect, Goose grass [19]: 2 (equivalent to 0 to 2.5% of the weed in the blank control area)
- Post-emergence weed control effect, Portulaca oleracea [20]: 1
- Post-emergence weed control effect, Chenopodium album [21]: 1
- Post-emergence weed control effect, Digitaria sanguinalis [22]: 2 (equivalent to 0 to 2.5% of the weed in the blank control area)
- Post-emergence weed control effect, Solanum nigrum [23]: 2 (equivalent to 0 to 2.5% of the weed in the blank control area)
- Post-emergence weed control effect, Amaranthus retroflexus [24]: 1
- Post-emergence weed control effect, Convolvulus arvensis [25]: 1
- Post-emergence weed control effect, Barnyard grass [26]: 1

SMILES: COc1ccc(OC)c(C(=O)NCc2cc(F)cc(Cl)c2)c1 [Compound A28]
- Herbicidal Activity Humulus scandens [1]: 2 (equivalent to 0 to 2.5% of the weed in the blank control area)
- Herbicidal Activity Digitaria sanguinalis [2]: 1
- Herbicidal Activity Amaranthus retroflexus [3]: 1
- Herbicidal Activity Green bristlegrass [4]: 1
- Herbicidal Activity Piemarker [5]: 1
- Herbicidal Activity Barnyard grass [6]: 1
- Herbicidal Activity Humulus scandens [7]: 1
- Herbicidal Activity Green bristlegrass [8]: 1
- Herbicidal Activity Digitaria sanguinalis [9]: 1
- Herbicidal Activity Amaranthus retroflexus [10]: 1
- Herbicidal Activity Piemarker [11]: 1
- Herbicidal Activity Barnyard grass [12]: 1
- Herbicidal activity 15 days after treatment Broadleaf weed [13]: 1
- Herbicidal activity 30 days after treatment Broadleaf weed [13]: 1
- Herbicidal activity 15 days after treatment Cyperaceae [14]: 2 (equivalent to 0 to 2.5% of the weed in the blank control area)
- Herbicidal activity 30 days after treatment Cyperaceae [14]: 1
- Herbicidal activity 15 days after treatment Gramineae [15]: 2 (equivalent to 0 to 2.5% of the weed in the blank control area)
- Herbicidal activity 30 days after treatment Gramineae [15]: 1
- Post-emergence weed control effect, Nutgrass flatsedge [16]: 2 (equivalent to 0 to 2.5% of the weed in the blank control area)
- Post-emergence weed control effect, Green bristlegrass [17]: 1
- Post-emergence weed control effect, Acalypha australis [18]: 2 (equivalent to 0 to 2.5% of the weed in the blank control area)
- Post-emergence weed control effect, Goose grass [19]: 2 (equivalent to 0 to 2.5% of the weed in the blank control area)
- Post-emergence weed control effect, Portulaca oleracea [20]: 1
- Post-emergence weed control effect, Chenopodium album [21]: 1
- Post-emergence weed control effect, Digitaria sanguinalis [22]: 2 (equivalent to 0 to 2.5% of the weed in the blank control area)
- Post-emergence weed control effect, Solanum nigrum [23]: 2 (equivalent to 0 to 2.5% of the weed in the blank control area)
- Post-emergence weed control effect, Amaranthus retroflexus [24]: 1
- Post-emergence weed control effect, Convolvulus arvensis [25]: 1
- Post-emergence weed control effect, Barnyard grass [26]: 1
